According to article PMC10850954, “HDAC6/aggresome processing pathway importance for inflammasome formation is context-dependent” (The Journal of Biological Chemistry, 2024):
pIC50: −log10 of the molar value.

Assays:
[1] = biological target: HDAC1 (Homo sapiens, UniProt Q13547); assay: In vitro enzymatic assay with purified HDACs; format: biochemical
Excerpt: (§1) To extend these observations in other cell settings, we next made use of a novel HDAC6 proteolysis targeting chimera (PROTAC) degrader, XY-07-35 ([19]). Treatment of cells with XY-07-35 leads to recruitment of the E3 ligase cereblon (CRBN) to HDAC6, ubiquitination, and subsequent proteasomal degradation of HDAC6 (Fig. 3A).
(§2) Figure 3 Effect of […] mediated HDAC6 degradation on NLRP3 inflammasome activation in PBMCs.A, schematic of the mode of action of an HDAC6 degrader. The PROTAC engages both HDAC6 and the E3 ligase cereblon (CRBN), which then leads to ubiquitination and degradation of HDAC6. B, chemical structure of the HDAC6 degrader XY-07-35 and of the negative control XY-07-191 which no longer recruits CRBN. C, in vitro enzymatic assay of compound XY-07-35 on the activity of different HDACs. IC50 for each enzyme is shown. D, XY-07-35 mediated HDAC6 degradation in PBMCs. PBMCs (without or with LPS priming for 4 h) were treated with the indicated compounds and HDAC6 levels were detected by immunoblotting with an anti-HDAC6 antibody. Detection of actin was used as a control for loading. CGP, CGP084892 (Caspase-1 inhibitor); AFN700 is an inhibitor of the NF-kB pathway (IKK inhibitor). E, HDAC6 degradation impact on IL-1β release in PBMCs following MSU 200 μg/ml (5 h), nigericin 2 μM (2 h) or ATP 3 mM (0.5 h) treatment. Cells were first primed with 0.2 ng/ml LPS for 4 h at 37 °C, then treated with MSU, nigericin, and ATP as indicated. The graphs below show the results of three independent experiments using the inducers as indicated. NP3-948 is an inhibitor of the NLRP3 inflammasome. TEXT PRINTED IN THE PICTURE: (C) XY-07-035: Compound IC50 (μM): 1.04 (Target: HDAC1); Compound IC50 (μM): 2.47 (Target: HDAC2); Compound IC50 (μM): 1.44 (Target: HDAC3); Compound IC50 (μM): 5.75 (Target: HDAC5); Compound IC50 (μM): 0.0485 (Target: HDAC6); Compound IC50 (μM): 0.621 (Target: HDAC8) DOUBTS OF THE COPYIST ABOUT THIS PICTURE: XY-07-035, HDAC4, HDAC7 and HDAC9: the table prints only dashes (--), no value, so these rows are left out

[2] = biological target: HDAC2 (Homo sapiens, UniProt Q92769); assay: In vitro enzymatic assay with purified HDACs; format: biochemical
Excerpt: as §1, §2

[3] = biological target: T1, HDAC6 (Homo sapiens, UniProt Q9UBN7); assay: In vitro enzymatic assay with purified HDACs; format: biochemical
T1 sequence (Q9UBN7 1-1215): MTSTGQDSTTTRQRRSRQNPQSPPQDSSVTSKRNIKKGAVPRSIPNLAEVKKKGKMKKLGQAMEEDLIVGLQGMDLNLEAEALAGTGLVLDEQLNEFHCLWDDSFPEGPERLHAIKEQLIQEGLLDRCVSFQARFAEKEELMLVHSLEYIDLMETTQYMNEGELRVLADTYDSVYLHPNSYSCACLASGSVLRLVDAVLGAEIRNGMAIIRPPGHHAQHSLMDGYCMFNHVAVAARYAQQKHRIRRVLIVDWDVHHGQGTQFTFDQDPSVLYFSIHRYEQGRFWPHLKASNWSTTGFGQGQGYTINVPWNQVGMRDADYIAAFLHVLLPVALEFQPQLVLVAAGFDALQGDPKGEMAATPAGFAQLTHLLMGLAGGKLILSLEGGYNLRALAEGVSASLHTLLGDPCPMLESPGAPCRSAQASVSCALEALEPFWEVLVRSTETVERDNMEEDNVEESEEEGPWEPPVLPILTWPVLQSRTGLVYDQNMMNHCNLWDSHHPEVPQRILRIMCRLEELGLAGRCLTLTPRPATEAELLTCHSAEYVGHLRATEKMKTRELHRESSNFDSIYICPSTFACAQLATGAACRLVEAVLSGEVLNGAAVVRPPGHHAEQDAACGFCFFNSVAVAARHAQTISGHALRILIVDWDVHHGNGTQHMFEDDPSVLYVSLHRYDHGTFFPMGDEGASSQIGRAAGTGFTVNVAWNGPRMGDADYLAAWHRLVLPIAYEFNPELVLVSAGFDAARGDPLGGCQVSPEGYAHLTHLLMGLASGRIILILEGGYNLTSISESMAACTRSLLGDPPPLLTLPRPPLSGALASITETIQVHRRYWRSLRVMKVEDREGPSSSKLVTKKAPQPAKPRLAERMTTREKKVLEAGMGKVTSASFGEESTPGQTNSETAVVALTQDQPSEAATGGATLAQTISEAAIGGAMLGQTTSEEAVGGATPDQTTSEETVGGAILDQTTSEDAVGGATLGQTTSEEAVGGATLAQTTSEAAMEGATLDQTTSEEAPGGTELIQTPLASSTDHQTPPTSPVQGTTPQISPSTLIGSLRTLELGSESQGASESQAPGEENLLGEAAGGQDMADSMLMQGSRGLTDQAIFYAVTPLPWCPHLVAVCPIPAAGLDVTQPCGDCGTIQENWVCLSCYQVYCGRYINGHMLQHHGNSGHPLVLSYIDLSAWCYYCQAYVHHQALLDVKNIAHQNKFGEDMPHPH
Excerpt: as §1, §2

[4] = test system: other HDACs; assay: In vitro enzymatic assay with purified HDACs; format: biochemical; conditions: other HDACs (than HDAC6 and HDAC8)
Excerpt: as §1, §2

[5] = biological target: T1, HDAC6; set-up: method as in PMID 34314730; conditions: cited from earlier work
[6] = biological target: T1, HDAC6; assay: HDAC6 degradation in pyrin-expressing U937 cells (immunoblot); format: cell-based; set-up: endogenous in cells; conditions: 0.1 μM to 10 μM
Method: Cells were treated with the indicated compounds and HDAC6 was detected by immunoblotting with an anti-HDAC6 antibody. Detection of actin was used as a control for protein loading. […] The membrane was blocked with 5% milk-TBS, and then incubated with primary antibodies overnight at 4 °C. The signal was developed with HRP-conjugated secondary antibodies and Amersham ECL Western Blotting Detection Reagent (Cytiva#RPN2106).

[7] = biological target: T1, HDAC6; assay: HDAC6 degradation in THP-1 cells (immunoblot); format: cell-based; set-up: endogenous in cells; host or cells: PBMCs (with or without LPS priming); conditions: non-differentiated and PMA-differentiated THP-1 cells

HDAC2, sequence (Q92769 whole entry, species assumed): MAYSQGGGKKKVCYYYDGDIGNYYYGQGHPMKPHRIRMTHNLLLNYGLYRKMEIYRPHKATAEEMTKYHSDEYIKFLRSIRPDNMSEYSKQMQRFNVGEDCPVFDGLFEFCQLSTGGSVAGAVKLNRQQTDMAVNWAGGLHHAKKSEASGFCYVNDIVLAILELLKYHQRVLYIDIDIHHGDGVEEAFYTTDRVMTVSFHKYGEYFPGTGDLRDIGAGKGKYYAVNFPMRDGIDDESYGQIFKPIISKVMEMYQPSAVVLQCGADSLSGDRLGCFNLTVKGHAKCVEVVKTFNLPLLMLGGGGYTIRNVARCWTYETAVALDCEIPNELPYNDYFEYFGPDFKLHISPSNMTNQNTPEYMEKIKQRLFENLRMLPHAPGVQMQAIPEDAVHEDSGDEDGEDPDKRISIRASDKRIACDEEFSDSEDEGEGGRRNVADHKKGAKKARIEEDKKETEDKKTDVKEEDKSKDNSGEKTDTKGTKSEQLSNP
HDAC1, sequence (Q13547 whole entry, species assumed): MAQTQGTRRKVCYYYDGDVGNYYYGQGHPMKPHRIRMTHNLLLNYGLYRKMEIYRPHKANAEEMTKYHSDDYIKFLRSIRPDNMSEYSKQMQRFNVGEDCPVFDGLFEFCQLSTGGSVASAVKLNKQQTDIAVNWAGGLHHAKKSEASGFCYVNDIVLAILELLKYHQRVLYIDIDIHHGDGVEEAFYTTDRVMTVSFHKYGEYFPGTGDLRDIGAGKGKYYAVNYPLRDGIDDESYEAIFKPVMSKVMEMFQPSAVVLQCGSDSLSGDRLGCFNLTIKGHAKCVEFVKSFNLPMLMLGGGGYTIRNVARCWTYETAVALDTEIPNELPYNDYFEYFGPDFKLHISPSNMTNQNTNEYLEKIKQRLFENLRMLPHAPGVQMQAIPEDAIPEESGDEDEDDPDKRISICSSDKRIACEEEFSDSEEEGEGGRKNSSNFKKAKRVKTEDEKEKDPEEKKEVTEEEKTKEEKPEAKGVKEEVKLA

`CN(C(=O)CCCNc1cccc2c1C(=O)N(C1CCC(=O)NC1=O)C2=O)c1ccc(NC(=O)CCCCCCC(=O)NO)cc1` (stereo not shown) [XY-07-35] showed a pIC50 [1] of 5.98, a pIC50 [2] of 5.61 and a pIC50 [3] of 7.31. For the same molecule, the pIC50 [4] was 5.24 to 5.98, the “degradation profile (specificity)” value [5] was “highly specific for HDAC6” and the HDAC6 degradation [6] was “efficiently degraded”. For the same molecule, the HDAC6 degradation [7] was “did not lead to HDAC6 degradation”.
